Measurements reported in ChEMBL document CHEMBL4177521, “Therapeutic Potential of Fatty Acid Amide Hydrolase, Monoacylglycerol Lipase, and N-Acylethanolamine Acid Amidase Inhibitors” (J Med Chem, 2017).
Each block holds one compound with its values, some of them ahead of it.

Assays:
[1] = target: T1, Monoglyceride lipase (Rattus norvegicus, UniProt Q8R431); assay: Inhibition of rat MAGL
T1 sequence (Q8R431 whole entry): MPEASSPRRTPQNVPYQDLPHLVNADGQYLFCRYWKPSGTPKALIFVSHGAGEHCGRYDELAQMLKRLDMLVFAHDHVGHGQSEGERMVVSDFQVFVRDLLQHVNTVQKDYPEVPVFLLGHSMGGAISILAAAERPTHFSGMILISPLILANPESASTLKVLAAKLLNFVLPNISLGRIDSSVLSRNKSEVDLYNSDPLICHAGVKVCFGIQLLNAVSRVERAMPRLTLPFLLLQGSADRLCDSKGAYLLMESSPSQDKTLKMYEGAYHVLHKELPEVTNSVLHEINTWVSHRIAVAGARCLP

[2] = target: T2, Monoglyceride lipase (Mus musculus, UniProt O35678); assay: Inhibition of mouse MAGL
T2 sequence (O35678 whole entry): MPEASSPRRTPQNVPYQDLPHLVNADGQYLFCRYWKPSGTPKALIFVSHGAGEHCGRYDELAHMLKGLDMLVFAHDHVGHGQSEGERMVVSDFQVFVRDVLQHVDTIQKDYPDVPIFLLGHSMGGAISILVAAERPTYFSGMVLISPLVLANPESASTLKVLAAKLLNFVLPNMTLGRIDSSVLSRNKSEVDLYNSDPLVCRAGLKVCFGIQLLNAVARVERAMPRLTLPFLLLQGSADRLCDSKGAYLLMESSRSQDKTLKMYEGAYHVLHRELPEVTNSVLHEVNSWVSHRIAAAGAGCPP

[3] = target: T1, Monoglyceride lipase; assay: Inhibition of rat MAGL preincubated for 30 mins followed by FP-Rh addition after 30 mins by gel-based ABPP assay
[4] = target: T3, Fatty-acid amide hydrolase 1 (Rattus norvegicus, UniProt P97612); assay: Inhibition of rat FAAH assessed as reduction in [14C]oleamide conversion to oleic acid by Lineweaver-Burk plot analysis
T3 sequence (P97612 whole entry): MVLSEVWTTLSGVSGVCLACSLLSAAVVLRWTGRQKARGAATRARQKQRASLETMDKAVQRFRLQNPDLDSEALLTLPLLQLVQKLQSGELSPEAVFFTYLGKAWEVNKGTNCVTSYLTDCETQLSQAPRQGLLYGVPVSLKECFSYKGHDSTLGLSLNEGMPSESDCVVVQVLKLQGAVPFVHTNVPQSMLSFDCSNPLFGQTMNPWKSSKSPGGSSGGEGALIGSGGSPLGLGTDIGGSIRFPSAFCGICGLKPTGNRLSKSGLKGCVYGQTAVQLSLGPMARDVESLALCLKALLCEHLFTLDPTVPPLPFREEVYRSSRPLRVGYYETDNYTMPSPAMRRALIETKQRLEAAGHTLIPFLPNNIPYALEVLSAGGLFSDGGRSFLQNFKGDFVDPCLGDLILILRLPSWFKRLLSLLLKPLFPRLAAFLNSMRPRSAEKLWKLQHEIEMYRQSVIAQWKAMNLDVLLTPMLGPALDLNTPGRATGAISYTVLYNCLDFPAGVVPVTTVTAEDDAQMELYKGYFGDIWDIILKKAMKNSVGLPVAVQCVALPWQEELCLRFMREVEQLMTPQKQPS

[5] = target: T3, Fatty-acid amide hydrolase 1; assay: Inhibition of Sprague-Dawley rat brain FAAH preincubated for 10 mins followed by [3H]-anandamide substrate addition after 30 mins by liquid scintillation counting method
[6] = target: T2, Monoglyceride lipase; assay: Inhibition of mouse MAGL preincubated for 30 mins followed by FP-Rh addition after 30 mins by gel-based ABPP assay
[7] = target: T3, Fatty-acid amide hydrolase 1; assay: Inhibition of rat brain microsomal FAAH using N-(2-hydroxyethyl)-4-pyren-1-yl-butanamide as substrate after 60 mins by RP HPLC based fluorescence assay
[8] = target: T3, Fatty-acid amide hydrolase 1; assay: Inhibition of rat FAAH
[9] = target: T1, Monoglyceride lipase; assay: Inhibition of rat cerebellar membranes MAGL-like activity preincubated for 30 mins followed by 2-AG substrate addition after 90 mins by HPLC analysis; design: species or system Cerebellum, Membrane
[10] = Half life in mouse plasma; type: ADME, cell-free
[11] = target: T4, Fatty-acid amide hydrolase 2 (Homo sapiens, UniProt Q6GMR7); assay: Inhibition of recombinant human N-terminal FLAG-tagged/C-terminal Myc-His6 tagged FAAH2 (32 to 579 residues) expressed in COS7 cell membranes; type: cell-based
T4 sequence (Q6GMR7 whole entry): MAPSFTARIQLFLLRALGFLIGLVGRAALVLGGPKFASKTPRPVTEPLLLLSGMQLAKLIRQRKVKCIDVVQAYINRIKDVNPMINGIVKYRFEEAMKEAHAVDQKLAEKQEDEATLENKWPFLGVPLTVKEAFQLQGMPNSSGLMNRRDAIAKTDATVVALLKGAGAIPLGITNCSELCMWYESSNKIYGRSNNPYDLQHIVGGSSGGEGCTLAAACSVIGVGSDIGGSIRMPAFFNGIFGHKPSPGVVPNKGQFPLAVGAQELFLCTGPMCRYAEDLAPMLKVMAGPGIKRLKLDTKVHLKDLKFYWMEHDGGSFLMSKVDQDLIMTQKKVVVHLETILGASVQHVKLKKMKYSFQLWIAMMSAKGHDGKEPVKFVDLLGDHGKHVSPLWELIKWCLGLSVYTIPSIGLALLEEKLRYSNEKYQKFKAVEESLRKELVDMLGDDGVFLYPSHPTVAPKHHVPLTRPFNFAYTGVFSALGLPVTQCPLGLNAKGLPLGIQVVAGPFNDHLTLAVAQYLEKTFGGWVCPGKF

[12] = Half life in rat plasma at 3 uM by LC/MS analysis; type: ADME, cell-free
[13] = target: T5, N-acylethanolamine-hydrolyzing acid amidase (Homo sapiens, UniProt Q02083); assay: Inhibition of recombinant human NAAA expressed in HEK293 cells preincubated for 10 mins followed by PAMCA substrate addition after 30 mins by fluorescence assay; type: cell-based
T5 sequence (Q02083 whole entry): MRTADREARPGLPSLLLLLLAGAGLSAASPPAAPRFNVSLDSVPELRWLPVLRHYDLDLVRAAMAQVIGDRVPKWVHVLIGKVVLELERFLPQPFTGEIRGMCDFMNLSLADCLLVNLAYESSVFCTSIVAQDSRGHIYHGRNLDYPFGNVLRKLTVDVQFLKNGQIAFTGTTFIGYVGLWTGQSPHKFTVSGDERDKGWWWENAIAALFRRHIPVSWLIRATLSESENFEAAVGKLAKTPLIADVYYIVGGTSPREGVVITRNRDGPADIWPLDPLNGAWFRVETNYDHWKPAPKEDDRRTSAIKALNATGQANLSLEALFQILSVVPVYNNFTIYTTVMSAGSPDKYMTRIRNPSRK

[14] = target: T3, Fatty-acid amide hydrolase 1; assay: Inhibition of FAAH in Wistar rat brain membranes using [3H]-anandamide as substrate preincubated for 10 mins followed by substrate addition measured after 4 mins by liquid scintillation counting method; type: cell membranes, Membrane
[15] = species on record: Homo sapiens; assay: Selectivity index, ratio of IC50 for ABHD6 (unknown origin) to IC50 for human MAGL
[16] = species on record: Homo sapiens; assay: Selectivity index, ratio of IC50 for FAAH (unknown origin) to IC50 for human MAGL
[17] = target: T1, Monoglyceride lipase; assay: Inhibition of recombinant rat MAGL expressed in Escherichia coli using 2-AG as substrate

SMILES: O=C(OC(C(F)(F)F)C(F)(F)F)N1CCC(C(O)(c2ccc3c(c2)OCO3)c2ccc3c(c2)OCO3)CC1
IC50 [6]: 15 nM
IC50 [3]: 43 nM

SMILES: O=C(NCCCCCCCn1nnc(-c2ccccc2)n1)Oc1ccccc1
IC50 [7]: 81 nM

SMILES: NC(=O)c1cccc(-c2cccc(OC(=O)NC3CCCCC3)c2)c1 [URB-597]
IC50 [11]: 5 nM

SMILES: CC(C)(C)[C@@H]1OC(=O)[C@H]1NC(=O)OCCCCCc1ccccc1
half-life at 3 µM [12]: > 5 min
IC50 [13]: 234 nM

SMILES: O=C(N1CCC(C(c2ccc3c(c2)OCO3)c2ccc3c(c2)OCO3)CC1)n1cncn1
Ratio IC50 [15]: 60
IC50 [1]: 0.214 nM
Ratio IC50 [16]: 11200
IC50 [2]: 0.275 nM

SMILES: O=C(N1CCN(C(c2ccc(F)cc2)c2ccc(F)cc2)CC1)n1cncn1
IC50 [1]: 1.1 nM
IC50 [2]: 0.219 nM

SMILES: CCCCCCCCCCC(=O)N[C@H]1CNC1=O
IC50 ([13]; hek293): 100 nM

SMILES: O=C(NC1CCCCC1)OCc1cn(-c2ccccc2)nn1
IC50 [5]: 381 nM

SMILES: O=C(CCCCCCCc1ccccc1)c1nc2ncccc2o1
Ki [4]: 0.39 nM

SMILES: COC(=O)[C@]1(C)CC[C@]2(C)CC[C@]3(C)C4=CC=C5C(=CC(=O)C(O)=C5C)[C@]4(C)CC[C@@]3(C)C2C1 (stereo partly specified)
IC50 [17]: 93 nM

Further lines, results first:

IC50 [1]: 0.589 nM
IC50 [2]: 0.309 nM
SMILES: O=C(N1CCN(C(c2ccccc2)c2ccccc2)CC1)n1cncn1

IC50 [3]: 385 nM
SMILES: CN(Cc1cccc(-c2ccncc2)c1)C(=O)OC(C(F)(F)F)C(F)(F)F

Ki [4]: 0.75 nM
SMILES: CCCCCCCCCC(=O)c1nc2ncccc2o1

IC50 [5]: 5.8 nM
SMILES: COc1ccc(Cn2cc(CNC(=O)OCc3cn(Cc4cccc(OC)c4)nn3)nn2)cc1

IC50 [7]: 110 nM
SMILES: O=C(NCCCCCCCCn1nnc(-c2ccccc2)n1)Oc1ccccc1

IC50 [8]: 6.1 nM
SMILES: COc1nn(-c2cccc(Oc3ccccc3)c2)c(=O)o1

IC50 [9]: 53000 nM
SMILES: CCN1C(=O)C=CC1=O [N-ETHYLMALEIMIDE]

half-life [10]: < 1 min
SMILES: O=C(CCc1ccccc1)N[C@H]1COC1=O

IC50 [7]: 5.3 nM
SMILES: O=C(NCCCCCCCn1nnc(-c2cccc(Cl)c2)n1)Oc1cccnc1

half-life at 3 µM [12]: > 5 min
IC50 [13]: 507 nM
SMILES: CC(C)(C)[C@@H]1OC(=O)[C@H]1NC(=O)OCc1ccc(-c2ccccc2)cc1

IC50 [14]: 30 nM
SMILES: O=C(NC1CCCCC1)Oc1ccc(O)c(-c2ccccc2)c1

IC50 [13]: 302 nM
SMILES: CC(C)(C)[C@@H]1OC(=O)[C@@H]1NC(=O)OCCCCCc1ccccc1

IC50 [13]: 280 nM
SMILES: O=C(CCCCCCC1CCCCC1)N[C@H]1CNC1=O
